Assays:
MOLT-3 [1] = experiment: Antitumor activity against human MOLT3 cells in presence of Penicillin-G-amidase after 72 hrs by XTT assay; format: functional, cell-based; details: MOLT-3, 72 h
MOLT-3 [2] = experiment: Antitumor activity against human MOLT3 cells in absence of Penicillin-G-amidase after 72 hrs by XTT assay; format: functional, cell-based; details: MOLT-3, 72 h

SMILES | IC50 (MOLT-3 [1]) [µM] | IC50 (MOLT-3 [2]) [µM]
O=C(Cc1ccccc1)Nc1ccc(COC(=O)Nc2c(COC(=O)NC(Cc3ccc(N(CCCl)CCCl)cc3)C(=O)O)cc(COC(=O)NC(C(=O)O)c3ccc(N(CCCl)CCCl)cc3)cc2COC(=O)NC(Cc2ccc(N(CCCl)CCCl)cc2)C(=O)O)cc1 (stereo not given) | 0.5 | 100
CN(CCN(C)C(=O)Oc1c(COC(=O)NC(Cc2ccc(N(CCCl)CCCl)cc2)C(=O)O)cc(COC(=O)NC(C(=O)O)c2ccc(N(CCCl)CCCl)cc2)cc1COC(=O)NC(Cc1ccc(N(CCCl)CCCl)cc1)C(=O)O)C(=O)OCc1ccc(NC(=O)Cc2ccccc2)cc1 (stereo not given) | 6 | 100
N[C@@H](Cc1ccc(N(CCCl)CCCl)cc1)C(=O)O [MELPHALAN] | 0.3 | –

From ChEMBL document CHEMBL1147966, “Remarkable drug-release enhancement with an elimination-based AB3 self-immolative dendritic amplifier” (Bioorg Med Chem, 2007)
